Assay results taken from ChEMBL document CHEMBL5620382, “Fluoroindole chalcone analogues targeting the colchicine binding site of tubulin for colorectal oncotherapy” (Eur J Med Chem, 2023).
Active and inactive are the calls of the source. No cut-off for these calls is given here.

Tests used:
[1] = test system: HCT-116; experiment: Induction of endoplasmic reticulum (ER) stress in human HCT-116 cells assessed as rough long-linear and irregularly dilated with locally verified expansion at 10 to 20 nM measured after 24 hrs by transmission electron microscope (TEM) analysis; assay type: functional, cell-based; conditions: dose 10-20 nM
[2] = test system: HCT-116; experiment: Induction of endoplasmic reticulum (ER) stress in human HCT-116 cells assessed as organelle vacuoles at 10 to 20 nM measured after 24 hrs by transmission electron microscope (TEM) analysis; assay type: functional, cell-based; conditions: dose 10-20 nM
[3] = test system: CT26; experiment: Induction of endoplasmic reticulum (ER) stress in mouse CT26 cells assessed as increase in ROS level at 40 nM measured after 24 hrs by fluorescent analysis (reference value: 14%); assay type: functional
[4] = test system: HCT-116; experiment: Induction of endoplasmic reticulum (ER) stress in human HCT-116 cells assessed as increase in ROS level at 5 nM measured after 24 hrs by fluorescent analysis (reference value: 12%); assay type: functional
[5] = test system: HCT-116; experiment: Induction of mitochondrial dysfunction in human HCT-116 cells assessed as change in mitochondrial membrane potential (MMP) by JC-1 fluorescence assay; assay type: functional, cell-based; conditions: dose 1.25-20 µM
[6] = test system: CT26; experiment: Induction of apoptosis in mouse CT26 cells assessed as dead cells at 2.5 to 40 nM measured after 24 hrs by PI/Annexin V-FITC staining based flow cytometry; assay type: functional, cell-based; conditions: dose 2.5-40 nM
[7] = test system: HCT-116; experiment: Anti-tumor activity against human HCT-116 cells xenografted in BALB/c mouse assessed as inhibition of cell proliferation in tumor section at 3 mg/kg, ip thrice a week for three weeks by Ki-67 staining based assay; assay type: functional, organism-based; conditions: time 3.0 weeks
[8] = test system: HCT-116; experiment: Induction of endoplasmic reticulum (ER) stress in human HCT-116 cells assessed as upregulation of cleaved-caspase 3 at 10 to 20 nM measured after 24 hrs by Western blot analysis; assay type: functional, cell-based; conditions: dose 10-20 nM
[9] = test system: CT26; experiment: Induction of endoplasmic reticulum (ER) stress in mouse CT26 cells assessed as increase p-PERK expression at 10 to 40 nM measured after 24 hrs by Western blot analysis; assay type: functional, cell-based; conditions: dose 10-40 nM
[10] = test system: HCT-116; experiment: Induction of endoplasmic reticulum (ER) stress in human HCT-116 cells assessed as increase in ROS level at 1.25 nM measured after 24 hrs by fluorescent analysis (reference value: 12%); assay type: functional
[11] = test system: CT26; experiment: Disruption of microtubule assembly in mouse CT26 cells assessed as reduced/disorganized microtubule network measured after 24 hrs by high-resolution microscopy; assay type: functional, cell-based
[12] = test system: CT26; experiment: Induction of endoplasmic reticulum (ER) stress in mouse CT26 cells assessed as upregulation of cleaved-caspase 3 at 10 to 40 nM measured after 24 hrs by Western blot analysis; assay type: functional, cell-based; conditions: dose 10-40 nM
[13] = Toxicity in BALB/c mouse xenografted with human HCT116 cells assessed as change in body weight at 1.5 to 3 mg/kg, ip thrice a week for three weeks; assay type: organism-based, HCT-116; conditions: in vivo, 504 h, dose 1.5-3 mg/kg, time 3 weeks
[14] = test system: CT26; experiment: Induction of endoplasmic reticulum (ER) stress in mouse CT26 cells assessed as increase in ROS level at 10 to 40 nM measured after 24 hrs by DCFH-DA analysis; assay type: functional, cell-based; conditions: dose 10-40 nM
[15] = test system: HCT-116; experiment: Anti-tumor activity against human HCT116 cells xenografted in BALB/c mouse assessed as inhibition of tumor growth at 1.5 to 3 mg/kg, ip thrice a week for three weeks; assay type: functional, organism-based; conditions: dose 1.5-3 mg/kg, time 3.0 weeks
[16] = test system: HCT-116; experiment: Anti-tumor activity against human HCT-116 cells xenografted in BALB/c mouse assessed as increase in necrotic area in tumor section at 3 mg/kg, ip thrice a week for three weeks by H and E staining based assay; assay type: functional, organism-based; conditions: time 3.0 weeks
[17] = test system: CT26; experiment: Induction of endoplasmic reticulum (ER) stress in mouse CT26 cells assessed as increase in ROS level at 5 nM measured after 24 hrs by fluorescent analysis (reference value: 14%); assay type: functional
[18] = test system: HCT-116; experiment: Induction of mitochondrial dysfunction in human HCT-116 cells assessed as reduction in oxygen consumption rate (OCR) incubated for 24 hrs; assay type: functional, cell-based; conditions: dose 1.25-20 µM
[19] = target: Tubulin (Homo sapiens) (UniProt P68371+Q9H4B7+P0DPH7+P68366+Q13509+Q71U36+P04350+Q3ZCM7+P07437+P68363+Q9BQE3+Q6PEY2+Q13885+Q9BVA1+Q9BUF5); experiment: Disruption of microtubule assembly in human HCT-116 cells assessed as reduced/disorganized microtubule network measured after 24 hrs by high-resolution microscopy; assay type: cell-based
[20] = test system: HCT-116; experiment: Induction of mitochondrial damage in human HCT-116 cells at 10 to 20 nM measured after 24 hrs by transmission electron microscope (TEM) analysis; assay type: functional, cell-based; conditions: dose 10-20 nM
[21] = test system: CT26; experiment: Induction of mitochondrial damage in mouse CT26 cells at 10 to 40 nM measured after 24 hrs by transmission electron microscope (TEM) analysis; assay type: functional, cell-based; conditions: dose 10-40 nM
[22] = test system: CT26; experiment: Induction of endoplasmic reticulum (ER) stress in mouse CT26 cells assessed as organelle vacuoles at 10 to 20 nM measured after 24 hrs by transmission electron microscope (TEM) analysis; assay type: functional, cell-based; conditions: dose 10-20 nM
[23] = test system: CT26; experiment: Induction of endoplasmic reticulum (ER) stress in mouse CT26 cells assessed as increase p-eIF2alpha expression at 10 to 40 nM measured after 24 hrs by Western blot analysis; assay type: functional, cell-based; conditions: dose 10-40 nM
[24] = test system: HCT-116; experiment: Antiproliferative activity against human HCT-116 cells assessed as dead cells at 2.5 to 20 nM measured after 24 hrs by Calcein-AM/PI staining based immunofluorescence analysis; assay type: functional, cell-based; conditions: dose 2.5-20 nM
[25] = test system: CT26; experiment: Antiproliferative activity against mouse CT26 cells assessed as inhibition of proliferation measured after 24 hrs by CCK-8 assay; assay type: functional, cell-based; conditions: CT26, 24 h
[26] = test system: CT26; experiment: Induction of endoplasmic reticulum (ER) stress in mouse CT26 cells assessed as increase p-IRE1alpha expression at 10 to 40 nM measured after 24 hrs by Western blot analysis; assay type: functional, cell-based; conditions: dose 10-40 nM
[27] = test system: HCT-116; experiment: Induction of endoplasmic reticulum (ER) stress in human HCT-116 cells assessed as increase in ROS level at 2.5 nM measured after 24 hrs by fluorescent analysis (reference value: 12%); assay type: functional
[28] = test system: CT26; experiment: Induction of mitochondrial dysfunction in mouse CT26 cells assessed as change in mitochondrial membrane potential (MMP) by JC-1 fluorescence assay; assay type: functional, cell-based; conditions: dose 2.5-40 µM

In the case of `COc1cc(C(=O)/C(C)=C/c2c[nH]c3cc(F)ccc23)cc(OC)c1OC`, the Activity [1] is reported as “Active”, the Activity [2] is reported as “Active” and the Activity [3] is reported as 59.1%. For the same compound, the Activity [4] was 48.5%, the Activity [5] was “Dose-Dependent Effect” and the Activity [6] was “Active”. The Activity [7] was “Active”, the Activity [8] was “Active” and the Activity [9] was “Active”. For the same compound, the Activity [10] was 20.1%, the Activity [11] was “Active” and the Activity [12] was “Active”. The Activity [13] was “Non-Toxic”, the Activity [14] was “Active” and the Activity [15] was “Active”. For the same compound, the Activity [16] was “Active”, the Activity [17] was 15% and the Activity [18] was “Dose-Dependent Effect”. For the same compound, the Activity [19] was “Active”, the Activity [20] was “Active” and the Activity [21] was “Active”. The Activity [22] was “Active”, the Activity [23] was “Active” and the Activity [24] was “Active”. For the same compound, the IC50 [25] was 0.0187 µM, the Activity [26] was “Active” and the Activity [27] was 35.6%. The Activity [28] was “Dose-Dependent Effect”.
